In brackets after ≈: the same amount, converted by molar mass. Like-named read-outs stand apart in the source and are kept apart here.
Tests used:
P. aeruginosa ATCC 9027 = assay: Antibacterial activity, pre-exposure; format: cell-based, Pseudomonas aeruginosa; details: for Average inhibition %, biofilms viability / Average inhibition %, planktonic cells viability / inhibition at 50 µM / inhibition at 100 µM / inhibition at 150 µM / inhibition at 200 µM: P. aeruginosa ATCC 9027, pre-exposure, ± SD; for inhibition at 50 µM / inhibition at 100 µM / inhibition at 150 µM / inhibition at 200 µM: ATCC9027
Summary of the method: (§1)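 Bacteria and compound were co-incubated from the start for 18 h at 37 °C, 220 rpm. Planktonic cells scored by turbidity plus resazurin reduction; washed biofilms scored by 20 μM resazurin (30, 60, 90 min for S. aureus, A. baumannii, P. aeruginosa) and ethanol-fixed crystal violet staining.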

A. baumannii NCTC 13423 = assay: Antibacterial activity, pre-exposure; format: cell-based, Acinetobacter baumannii; details: for Average inhibition %, biofilms viability / Average inhibition %, planktonic cells viability / inhibition at 10 µM / inhibition at 15 µM / inhibition at 25 µM / inhibition at 50 µM: A. baumannii NCTC 13423, pre-exposure, ± SD; for inhibition at 10 µM / inhibition at 15 µM / inhibition at 25 µM / inhibition at 50 µM / MIC: Acinetobacter baumannii, NCTC13423
Summary of the method: as §1

S. aureus ATCC 25923 [1] = assay: Antibacterial activity, post-exposure on preformed 18-h-old biofilms; format: cell-based, Staphylococcus aureus; details: for Average inhibition %, biofilms viability / Average inhibition %, planktonic cells viability / inhibition at 25 µM / inhibition at 50 µM / inhibition at 100 µM / inhibition at 200 µM: ± SD; for inhibition at 25 µM / inhibition at 50 µM / inhibition at 100 µM / inhibition at 200 µM: Staphylococcus aureus; for inhibition at 25 µM: ATCC25923, 25 µM; for inhibition at 50 µM: ATCC25923, 50 µM; for inhibition at 100 µM: ATCC25923, 100 µM; for inhibition at 200 µM: ATCC25923, 200 µM
Summary of the method: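 Compounds were applied to preformed 18-h biofilms after medium change and left 24 h. Read-outs: planktonic OD plus resazurin fluorescence (20 μM), biofilm metabolic activity by resazurin 30 min at 37 °C, then biomass by crystal violet absorbance at 595 nm after ethanol fixation.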

S. aureus ATCC 25923 [2] = assay: Antibacterial activity, pre-exposure (planktonic cells and biofilm formation); format: cell-based, Staphylococcus aureus; details: for MIC / inhibition at 5 µM / inhibition at 10 µM / inhibition at 15 µM / inhibition at 25 µM: Staphylococcus aureus, ATCC25923; for inhibition at 5 µM / inhibition at 10 µM / inhibition at 15 µM / inhibition at 25 µM / Average inhibition %, biofilms viability / Average inhibition %, planktonic cells viability: pre-exposure, ± SD
Summary of the method: as §1

[3] = 10 µM, read-out: Average inhibition %, biofilms biomass
[4] = 10 µM, read-out: Average inhibition %, planktonic cells turbidity
[5] = 15 µM, read-out: Average inhibition %, biofilms biomass
[6] = 15 µM, read-out: Average inhibition %, planktonic cells turbidity
[7] = 25 µM, read-out: Average inhibition %, biofilms biomass
[8] = 25 µM, read-out: Average inhibition %, planktonic cells turbidity
[9] = read-out: Average inhibition %, biofilms biomass
[10] = read-out: Average inhibition %, planktonic cells turbidity

MIC (P. aeruginosa ATCC 9027; Pseudomonas aeruginosa, ATCC9027, pre-exposure, Inactive = no activity up to 200 μM, > = some inhibition but no MIC reached, read-out: MIC P. aeruginosa ATCC 9027): 50 to 100 µM (≈ 16.2 to 32.3 µg/mL)
MIC (P. aeruginosa ATCC 9027; Pseudomonas aeruginosa, ATCC9027, supplementary molecular formula strings sheet, read-out: MIC (P. aeruginosa)): 100 µM (≈ 32.3 µg/mL)
MIC (P. aeruginosa ATCC 9027; pre-exposure, Inactive = no activity up to 200 μM, > = some inhibition but no MIC reached, read-out: MIC P. aeruginosa ATCC 9027): 100 µM (≈ 32.3 µg/mL)
MIC (A. baumannii NCTC 13423; pre-exposure, Inactive = no activity up to 50 μM, > = some inhibition but no MIC reached, read-out: MIC A. baumannii NCTC 13423): 50 µM (≈ 16.2 µg/mL)
MIC (A. baumannii NCTC 13423; supplementary molecular formula strings sheet, read-out: MIC (A. baumannii)): 50 µM (≈ 16.2 µg/mL)
MIC (S. aureus ATCC 25923 [2]; lowest concentration with no visible growth (>90% inhibition of turbidity and viability of planktonic cells), 18 h, read-out: MIC S. aureus ATCC 25923): 25 µM (≈ 8.09 µg/mL)
MIC (S. aureus ATCC 25923 [2]; read-out: MIC (S. aureus)): 25 µM (≈ 8.09 µg/mL)
SMILES: CCCCCCCCc1ccc(C(O)CC(N)(CO)CO)cc1 (stereo not drawn) [Compound 54, 3-Amino-3-(hydroxymethyl)-1-(4-octylphenyl)butane-1,4-diol]
Average inhibition %, biofilms viability (P. aeruginosa ATCC 9027; 50 µM): 22.2 ± 26.9%
Average inhibition %, planktonic cells viability (P. aeruginosa ATCC 9027; 50 µM): 74 ± 11.2%
Average inhibition %, biofilms viability (P. aeruginosa ATCC 9027; 100 µM): 98.9 ± 1.5%
Average inhibition %, planktonic cells viability (P. aeruginosa ATCC 9027; 100 µM): 99.6 ± 0%
Average inhibition %, biofilms viability (P. aeruginosa ATCC 9027; 150 µM): 97.5 ± 3.9%
Average inhibition %, planktonic cells viability (P. aeruginosa ATCC 9027; 150 µM): 99.2 ± 0.8%
Average inhibition %, biofilms viability (P. aeruginosa ATCC 9027; 200 µM): 99.7 ± 0.1%
Average inhibition %, planktonic cells viability (P. aeruginosa ATCC 9027; 200 µM): 99.7 ± 0.1%
inhibition at 50 µM (P. aeruginosa ATCC 9027; Pseudomonas aeruginosa, 50 µM, read-out: Average inhibition %, biofilms biomass): 46.4 ± 22%
inhibition at 50 µM (P. aeruginosa ATCC 9027; Pseudomonas aeruginosa, 50 µM, read-out: Average inhibition %, planktonic cells turbidity): 76.9 ± 11.6%
inhibition at 100 µM (P. aeruginosa ATCC 9027; Pseudomonas aeruginosa, 100 µM, read-out: Average inhibition %, biofilms biomass): 96.7 ± 1.1%
inhibition at 100 µM (P. aeruginosa ATCC 9027; Pseudomonas aeruginosa, 100 µM, read-out: Average inhibition %, planktonic cells turbidity): 98.2 ± 0.5%
inhibition at 150 µM (P. aeruginosa ATCC 9027; Pseudomonas aeruginosa, 150 µM, read-out: Average inhibition %, biofilms biomass): 90.9 ± 7.2%
inhibition at 150 µM (P. aeruginosa ATCC 9027; Pseudomonas aeruginosa, 150 µM, read-out: Average inhibition %, planktonic cells turbidity): 94.4 ± 1.4%
inhibition at 200 µM (P. aeruginosa ATCC 9027; Pseudomonas aeruginosa, 200 µM, read-out: Average inhibition %, biofilms biomass): 94.1 ± 1.7%
inhibition at 200 µM (P. aeruginosa ATCC 9027; Pseudomonas aeruginosa, 200 µM, read-out: Average inhibition %, planktonic cells turbidity): 94.1 ± 1.3%
Average inhibition %, biofilms viability (A. baumannii NCTC 13423; 10 µM): 0 ± 0%
Average inhibition %, planktonic cells viability (A. baumannii NCTC 13423; 10 µM): 4.7 ± 2.4%
Average inhibition %, biofilms viability (A. baumannii NCTC 13423; 15 µM): 1.2 ± 2.1%
Average inhibition %, planktonic cells viability (A. baumannii NCTC 13423; 15 µM): 6.4 ± 4.2%
Average inhibition %, biofilms viability (A. baumannii NCTC 13423; 25 µM): 6.1 ± 6.8%
Average inhibition %, planktonic cells viability (A. baumannii NCTC 13423; 25 µM): 3.3 ± 4.4%
Average inhibition %, biofilms viability (A. baumannii NCTC 13423; 50 µM): 100.2 ± 0.8%
Average inhibition %, planktonic cells viability (A. baumannii NCTC 13423; 50 µM): 99.4 ± 0.2%
inhibition at 10 µM (A. baumannii NCTC 13423; [3]): 2.3 ± 4.1%
inhibition at 10 µM (A. baumannii NCTC 13423; [4]): 0%
inhibition at 15 µM (A. baumannii NCTC 13423; [5]): 1.5 ± 1.3%
inhibition at 15 µM (A. baumannii NCTC 13423; [6]): 0%
inhibition at 25 µM (A. baumannii NCTC 13423; [7]): 6.1 ± 8.1%
inhibition at 25 µM (A. baumannii NCTC 13423; [8]): 0%
inhibition at 50 µM (A. baumannii NCTC 13423; 50 µM, read-out: Average inhibition %, biofilms biomass): 81.2 ± 8.8%
inhibition at 50 µM (A. baumannii NCTC 13423; 50 µM, read-out: Average inhibition %, planktonic cells turbidity): 99 ± 1%
Average inhibition %, biofilms viability (S. aureus ATCC 25923 [1]; 25 µM): 11.2 ± 0.8%
Average inhibition %, planktonic cells viability (S. aureus ATCC 25923 [1]; 25 µM): 15 ± 26.1%
Average inhibition %, biofilms viability (S. aureus ATCC 25923 [1]; 50 µM): 23.6 ± 12.7%
Average inhibition %, planktonic cells viability (S. aureus ATCC 25923 [1]; 50 µM): 0 ± 0%
Inhibition of viability and total biomass of preformed biofilms (S. aureus ATCC 25923 [1]; 100 μM): at least 70%
Average inhibition %, biofilms viability (S. aureus ATCC 25923 [1]; 100 µM): 82.1 ± 27.3%
Average inhibition %, planktonic cells viability (S. aureus ATCC 25923 [1]; 100 µM): 97.9 ± 3.4%
Average inhibition %, biofilms viability (S. aureus ATCC 25923 [1]; 200 µM): 99.8 ± 0.2%
Average inhibition %, planktonic cells viability (S. aureus ATCC 25923 [1]; 200 µM): 100.1 ± 0.2%
inhibition at 25 µM (S. aureus ATCC 25923 [1]; [9]): 44 ± 14.9%
inhibition at 25 µM (S. aureus ATCC 25923 [1]; [10]): 5.1 ± 6.4%
inhibition at 50 µM (S. aureus ATCC 25923 [1]; [9]): 55.3 ± 3%
inhibition at 50 µM (S. aureus ATCC 25923 [1]; [10]): 17.4 ± 3.4%
inhibition at 100 µM (S. aureus ATCC 25923 [1]; [9]): 83.5 ± 19%
inhibition at 100 µM (S. aureus ATCC 25923 [1]; [10]): 82.6 ± 4.7%
inhibition at 200 µM (S. aureus ATCC 25923 [1]; [9]): 86.4 ± 3.9%
inhibition at 200 µM (S. aureus ATCC 25923 [1]; [10]): 83.6 ± 3.7%
inhibition at 5 µM (S. aureus ATCC 25923 [2]; 5 µM, read-out: Average inhibition %, biofilms biomass): 21.2 ± 18.4%
inhibition at 5 µM (S. aureus ATCC 25923 [2]; 5 µM, read-out: Average inhibition %, planktonic cells turbidity): 34.1 ± 32.1%
inhibition at 10 µM (S. aureus ATCC 25923 [2]; [3]): 23.7 ± 8.7%
inhibition at 10 µM (S. aureus ATCC 25923 [2]; [4]): 38.3 ± 27%
inhibition at 15 µM (S. aureus ATCC 25923 [2]; [5]): 39.3 ± 23.6%
inhibition at 15 µM (S. aureus ATCC 25923 [2]; [6]): 44.1 ± 23.3%
inhibition at 25 µM (S. aureus ATCC 25923 [2]; [7]): 93.7 ± 4.1%
inhibition at 25 µM (S. aureus ATCC 25923 [2]; [8]): 98.8 ± 1%
Average inhibition %, biofilms viability (S. aureus ATCC 25923 [2]; 5 µM): 21.2 ± 4.7%
Average inhibition %, planktonic cells viability (S. aureus ATCC 25923 [2]; 5 µM): 11.9 ± 20.6%
Average inhibition %, biofilms viability (S. aureus ATCC 25923 [2]; 10 µM): 28.3 ± 15.2%
Average inhibition %, planktonic cells viability (S. aureus ATCC 25923 [2]; 10 µM): 10.2 ± 17.7%
Average inhibition %, biofilms viability (S. aureus ATCC 25923 [2]; 15 µM): 28.6 ± 10.1%
Average inhibition %, planktonic cells viability (S. aureus ATCC 25923 [2]; 15 µM): 8.5 ± 14.7%
Average inhibition %, biofilms viability (S. aureus ATCC 25923 [2]; 25 µM): 99.5 ± 0.6%
Average inhibition %, planktonic cells viability (S. aureus ATCC 25923 [2]; 25 µM): 99.8 ± 0.1%

Reference: PMC8296573, “Synthesis and Biological Evaluation of Fingolimod Derivatives as Antibacterial Agents” (ACS Omega, 2021)
